Where “and” joins values, the source holds several entries; their conditions need not be identical. Equal entries are not always repeated. Where two headings read alike, the source gives them in different places.
Experiments:
HepG2 cells [1] = experiment: Seahorse XFe96 cellular respiration assay (oxygen consumption rate); type: cell-based; conditions: 24 hour incubation
Experimental: To assess the potential effect of the five test articles on mitochondrial function, cellular respiration assays using a Seahorse XFe96 Flux Analyzer were conducted by Cyprotex (Macclesfield, UK) and overseen by the authors. HepG2 cells were incubated with each test article for 1 or 24 hours and tested for an effect on cellular respiration by measuring the oxygen consumption rate (OCR). Each study was conducted in triplicate. Importantly, the 1 hour culture was conducted in the absence of serum (i.e. no serum protein binding) as is standard for the Seahorse Analyzer assay conditions.

human BSEP [2] = biological target: T1, human BSEP (Homo sapiens, UniProt O95342); design: method as in earlier work; conditions: ref (7); read-out: BSEP Ki used in DILIsym simulations previously; cited from earlier work
T1 construct: host or cells: HEK-293 cell membrane vesicles
T1 sequence (O95342 whole entry): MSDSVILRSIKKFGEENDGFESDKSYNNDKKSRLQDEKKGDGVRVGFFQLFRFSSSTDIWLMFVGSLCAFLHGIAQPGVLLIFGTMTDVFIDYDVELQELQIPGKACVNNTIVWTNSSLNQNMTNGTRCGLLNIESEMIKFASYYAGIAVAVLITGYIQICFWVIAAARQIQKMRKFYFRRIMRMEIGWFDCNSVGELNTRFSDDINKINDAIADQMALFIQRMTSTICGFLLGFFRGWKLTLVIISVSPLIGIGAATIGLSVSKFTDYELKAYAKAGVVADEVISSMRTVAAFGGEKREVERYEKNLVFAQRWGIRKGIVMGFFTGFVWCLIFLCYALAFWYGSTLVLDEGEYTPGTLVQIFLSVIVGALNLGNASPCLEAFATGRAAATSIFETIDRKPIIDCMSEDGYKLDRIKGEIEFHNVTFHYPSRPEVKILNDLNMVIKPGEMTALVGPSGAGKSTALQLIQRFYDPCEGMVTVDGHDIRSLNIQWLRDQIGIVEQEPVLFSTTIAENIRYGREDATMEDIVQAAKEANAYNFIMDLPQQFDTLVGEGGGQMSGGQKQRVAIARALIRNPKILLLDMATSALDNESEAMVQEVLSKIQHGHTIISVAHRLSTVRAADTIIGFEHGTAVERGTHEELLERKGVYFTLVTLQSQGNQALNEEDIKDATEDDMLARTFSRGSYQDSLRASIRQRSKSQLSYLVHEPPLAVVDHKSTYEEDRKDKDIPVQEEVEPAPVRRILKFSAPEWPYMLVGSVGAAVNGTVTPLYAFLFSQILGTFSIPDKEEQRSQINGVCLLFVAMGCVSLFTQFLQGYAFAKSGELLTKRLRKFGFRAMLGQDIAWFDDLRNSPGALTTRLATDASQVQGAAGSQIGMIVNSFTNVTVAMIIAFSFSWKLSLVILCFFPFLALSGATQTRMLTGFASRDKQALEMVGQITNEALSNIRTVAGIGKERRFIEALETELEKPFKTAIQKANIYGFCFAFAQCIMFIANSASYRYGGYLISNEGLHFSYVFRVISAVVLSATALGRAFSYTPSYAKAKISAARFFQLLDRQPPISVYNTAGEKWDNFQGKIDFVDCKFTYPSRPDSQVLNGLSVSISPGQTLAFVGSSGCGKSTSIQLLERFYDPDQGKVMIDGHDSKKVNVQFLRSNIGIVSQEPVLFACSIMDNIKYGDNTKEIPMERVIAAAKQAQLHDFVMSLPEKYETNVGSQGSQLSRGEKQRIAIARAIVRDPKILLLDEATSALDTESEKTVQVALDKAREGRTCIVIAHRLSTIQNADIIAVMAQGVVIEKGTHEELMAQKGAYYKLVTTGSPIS

simulated individuals = test system: simulated individuals; design: method as in PMID 27655350; conditions: 24 weeks, cited from earlier work; for Simulated ALT >3X ULN, frequency: 90/30 mg split daily dosing
[3] = test system: mitochondrial electron transport chain; conditions: intracellular concentrations not measured; cited from earlier work
human BSEP [4] = biological target: T1, human BSEP; experiment: BSEP vesicular transport inhibition assay (taurocholate, HEK-293 cell membrane vesicles); type: biochemical
Experimental: (§1) The functional impact of lixivaptan, its three metabolites and tolvaptan on the human ABC (efflux) transporters BSEP and MRP3 and MRP4 was assessed for this project using in vitro vesicular transport inhibition assays. The inhibition of the human SLC (uptake) transporter NTCP was assessed using CHO cells stably expressing human NTCP. The concentration ranges used for the five test articles was determined based on the solubility of each compound in the assay solution. All transporter inhibition assays were conducted in triplicate by Solvo Biotechnology (Szeged, Hungary).
For the simulation of bile acid transporter inhibition by lixivaptan in DILIsym, parameter values were selected for BSEP canalicular transport, basolateral transport (encompassing both MRP3 and MRP4), and NTCP transport. The parameter values for each include the inhibition constant, defined as the IC50 or Ki value, and the inhibition type, defined as competitive, non-competitive, or mixed inhibition.
In vesicular transport inhibition assays, lixivaptan and its metabolites each inhibited BSEP-mediated probe substrate accumulation (Figure B1) and MRP4-mediated probe substrate accumulation (Figure B2) dose-dependently.
Figure B1. […] See Appendix A for more details.

[5] = test system: mitochondrial electron transport chain; experiment: ETC inhibition parameter from MITOsym simulation of OCR data, translated to DILIsym; conditions: calculated from 24 h HepG2 OCR data and measured intracellular concentrations; lower = higher risk
Excerpt: The parameters calculated in this manner were then translated to DILIsym parameters using a conversion factor based on the relative activity of rotenone in the in vitro vs. in vivo environment (7).

human MRP3 = biological target: T2, human MRP3 (Homo sapiens, UniProt O15438); experiment: MRP3 vesicular transport inhibition assay (E217βG, HEK-293 cell membrane vesicles); type: biochemical
T2 construct: host or cells: HEK-293 cell membrane vesicles
T2 sequence (O15438 whole entry): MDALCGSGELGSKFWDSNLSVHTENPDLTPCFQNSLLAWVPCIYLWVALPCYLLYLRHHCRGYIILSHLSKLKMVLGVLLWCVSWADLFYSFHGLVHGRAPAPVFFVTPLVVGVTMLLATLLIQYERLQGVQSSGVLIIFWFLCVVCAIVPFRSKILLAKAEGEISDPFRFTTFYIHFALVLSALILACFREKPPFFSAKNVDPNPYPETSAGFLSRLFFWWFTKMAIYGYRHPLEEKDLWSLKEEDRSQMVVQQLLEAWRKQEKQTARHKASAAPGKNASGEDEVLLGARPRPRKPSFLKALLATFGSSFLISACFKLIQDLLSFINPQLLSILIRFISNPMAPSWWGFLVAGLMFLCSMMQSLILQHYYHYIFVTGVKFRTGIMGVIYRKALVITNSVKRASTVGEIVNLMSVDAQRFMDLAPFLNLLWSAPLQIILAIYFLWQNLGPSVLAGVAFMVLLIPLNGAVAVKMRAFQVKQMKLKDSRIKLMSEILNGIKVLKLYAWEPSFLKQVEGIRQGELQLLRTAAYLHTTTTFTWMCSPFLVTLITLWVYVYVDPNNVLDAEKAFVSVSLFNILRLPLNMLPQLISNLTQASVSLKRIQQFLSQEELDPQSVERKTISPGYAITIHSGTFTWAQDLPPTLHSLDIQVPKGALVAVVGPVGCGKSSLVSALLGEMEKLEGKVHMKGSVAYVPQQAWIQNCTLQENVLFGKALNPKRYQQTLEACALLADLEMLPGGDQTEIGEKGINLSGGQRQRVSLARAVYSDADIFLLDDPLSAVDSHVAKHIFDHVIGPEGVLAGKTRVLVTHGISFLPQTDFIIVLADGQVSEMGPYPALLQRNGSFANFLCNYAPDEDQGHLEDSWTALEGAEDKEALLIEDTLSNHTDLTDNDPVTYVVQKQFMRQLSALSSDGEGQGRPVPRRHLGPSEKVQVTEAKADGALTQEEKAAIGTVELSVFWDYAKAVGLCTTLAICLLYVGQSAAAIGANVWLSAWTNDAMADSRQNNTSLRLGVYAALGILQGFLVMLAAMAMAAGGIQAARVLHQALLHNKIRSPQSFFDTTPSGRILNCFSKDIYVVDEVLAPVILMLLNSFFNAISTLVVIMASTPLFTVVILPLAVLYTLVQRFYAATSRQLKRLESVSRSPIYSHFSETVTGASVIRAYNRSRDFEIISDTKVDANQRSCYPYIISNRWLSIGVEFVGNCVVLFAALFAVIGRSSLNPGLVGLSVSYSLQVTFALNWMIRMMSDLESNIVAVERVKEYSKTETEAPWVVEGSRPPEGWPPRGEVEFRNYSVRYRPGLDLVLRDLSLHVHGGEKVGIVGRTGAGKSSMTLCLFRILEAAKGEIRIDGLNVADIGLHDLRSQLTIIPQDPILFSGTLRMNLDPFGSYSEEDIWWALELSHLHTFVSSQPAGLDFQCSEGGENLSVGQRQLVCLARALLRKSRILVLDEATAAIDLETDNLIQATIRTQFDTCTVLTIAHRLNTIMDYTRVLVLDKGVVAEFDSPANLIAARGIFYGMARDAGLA
Experimental: as §1
Figure B3. […] See Appendix A for more details.

HepG2 cells [6] = experiment: Intracellular concentration by LC/MS/MS in HepG2 cultures parallel to Seahorse assay; type: in vitro ADME; conditions: Seahorse medium; for CIntracellular Fraction: cell lysate; for CHepatocyte: corrected for lysate and HepG2 cell volume
Experimental: (§2) The concentration of test compound at the site of action (i.e. hepatocytes) has been identified as highly influential in the selection of parameter values (7). To assess intracellular concentrations of the five test articles, identical HepG2 cultures were established in parallel and cell lysate concentrations of the test articles were measured by LC/MS/MS analysis. Intracellular concentrations of the test articles were calculated by correcting for cell lysate volume (100 µL) and the volume of HepG2 cells in each well, which was calculated by multiplying cell count per well by cellular volume per cell (2.85 pl/cell). One independent study in duplicate was conducted to assess intracellular concentrations of the test articles for Seahorse studies.

[7] = as above; type: in vitro ADME; conditions: human, HepG2 cells, Seahorse medium
Experimental: as §2

human NTCP = biological target: T3, human NTCP (Homo sapiens, UniProt Q14973); experiment: NTCP inhibition in CHO cells stably expressing human NTCP (taurocholate); type: cell-based; conditions: CHO cells
T3 sequence (Q14973 1-349): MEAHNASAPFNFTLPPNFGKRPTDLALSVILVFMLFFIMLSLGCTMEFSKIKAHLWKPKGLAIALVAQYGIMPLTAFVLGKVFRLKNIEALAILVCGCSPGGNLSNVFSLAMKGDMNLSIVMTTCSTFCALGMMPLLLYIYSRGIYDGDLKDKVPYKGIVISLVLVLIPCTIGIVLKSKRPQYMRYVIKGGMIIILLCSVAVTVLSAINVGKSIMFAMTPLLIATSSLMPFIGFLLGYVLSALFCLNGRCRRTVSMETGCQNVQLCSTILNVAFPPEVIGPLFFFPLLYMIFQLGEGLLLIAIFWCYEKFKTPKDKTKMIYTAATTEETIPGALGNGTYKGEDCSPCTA
Experimental: as §1
Figure B4. […] See Appendix A for more details.

[8] = 90/30 mg, cited from earlier work

Compound: Cc1ccccc1C(=O)Nc1ccc(C(=O)N2CCCC(O)c3cc(Cl)ccc32)c(C)c1 (centres unmarked) [Tolvaptan, tolvaptan, reference compound]
- effect on HepG2 oxygen consumption rate (mitochondrial respiration) (HepG2 cells [1]): reduce the HepG2 OCR in a dose-dependent manner
- Ki (human BSEP [2]): 31.6 µM
- Simulated ALT >3X ULN, frequency (simulated individuals): 7.86%
- Simulated ALT >3X ULN, frequency (simulated individuals; listed as tolvaptan): 7.86%
- Simulated ALT >3X ULN (simulated individuals; 90/30 mg): 18/229
- Simulated Hy's Law Cases (simulated individuals; 90/30 mg): Yes
- Coefficient for ETC inhibition (DILIsym parameter) used in previously published research [3]: 1.09 mM
- IC50 (human BSEP [4]; read-out: BSEP inhibition constant (IC50)): 16.5 µM
- inhibition of BSEP-mediated probe substrate accumulation (human BSEP [4]; vesicular transport inhibition assay): inhibited
- Coefficient for ETC inhibition (DILIsym parameter) [5]: 729 µM
- inhibition of MRP3-mediated probe substrate accumulation (human MRP3): inhibited
- CIntracellular Fraction (HepG2 cells [6]; dose 0.1 µM): 0 µM
- CHepatocyte (HepG2 cells [6]; dose 0.1 µM): 0 µM
- CIntracellular Fraction (HepG2 cells [6]; dose 0.5 µM): 0 µM
- CHepatocyte (HepG2 cells [6]; dose 0.5 µM): 0 µM
- CIntracellular Fraction (HepG2 cells [6]; dose 1 µM): 0 µM
- CHepatocyte (HepG2 cells [6]; dose 1 µM): 0 µM
- CIntracellular Fraction (HepG2 cells [6]; dose 5 µM): 0.0156 µM
- CHepatocyte (HepG2 cells [6]; dose 5 µM): 32.20 µM
- CIntracellular Fraction (HepG2 cells [6]; dose 10 µM): 0.0162 µM
- CHepatocyte (HepG2 cells [6]; dose 10 µM): 34.40 µM
- CIntracellular Fraction (HepG2 cells [6]; dose 25 µM): 0.0629 µM
- CHepatocyte (HepG2 cells [6]; dose 25 µM): 149.2 µM
- CIntracellular Fraction (HepG2 cells [6]; dose 40 µM): 0.0937 µM
- CHepatocyte (HepG2 cells [6]; dose 40 µM): 227.9 µM
- Kp at 5 µM ([7]; dose 5 µM): 6.44
- Kp at 10 µM ([7]; dose 10 µM): 3.44
- Kp at 25 µM ([7]; dose 25 µM): 5.97
- Kp at 40 µM ([7]; dose 40 µM): 5.7
- inhibition of NTCP-mediated probe substrate accumulation (human NTCP): inhibited
- Clinical Hy's Law Cases ([8]; ADPKD): Yes
- Clinical ALT >3X ULN, frequency ([8]; treated ADPKD patients): 4.4% and 5.6%

Source: article PMC6944674, “Comparison of the Hepatotoxic Potential of Two Treatments for Autosomal-Dominant Polycystic Kidney DiseaseUsing Quantitative Systems Toxicology Modeling” (Pharmaceutical Research, 2020)
